This is an account of results in patent US6448201B1, “Benzoylcyclohexanediones and benzoylpyrazoles, their preparation, and their use as herbicides and plant growth regulators” (Aventis CropScience GmbH, priority 1999, dated 2002).

By melting point is commonly meant the temperature, or range, at which the solid turns liquid.

Turning to `CS(=O)(=O)c1ccc(C(=O)C2C(=O)CCCC2=O)c(Cl)c1OCc1cc(-c2ccccc2)no1` [1.70, 2-(2-Chloro-3-(3-phenylisoxazol-5-yl)methoxy-4-methylsulfonylbenzoyl)cyclohexane-1,3-dione], the melting point lay in the range of 72 to 78 °C.
